The source of these data is ChEMBL document CHEMBL1140777, “3,4-Diamino-2,5-thiadiazole-1-oxides as potent CXCR2/CXCR1 antagonists” (Bioorg Med Chem Lett, 2008).

The target of series [1] is T1, C-X-C chemokine receptor type 1 (Homo sapiens, UniProt P25024).
T1 sequence (P25024 whole entry): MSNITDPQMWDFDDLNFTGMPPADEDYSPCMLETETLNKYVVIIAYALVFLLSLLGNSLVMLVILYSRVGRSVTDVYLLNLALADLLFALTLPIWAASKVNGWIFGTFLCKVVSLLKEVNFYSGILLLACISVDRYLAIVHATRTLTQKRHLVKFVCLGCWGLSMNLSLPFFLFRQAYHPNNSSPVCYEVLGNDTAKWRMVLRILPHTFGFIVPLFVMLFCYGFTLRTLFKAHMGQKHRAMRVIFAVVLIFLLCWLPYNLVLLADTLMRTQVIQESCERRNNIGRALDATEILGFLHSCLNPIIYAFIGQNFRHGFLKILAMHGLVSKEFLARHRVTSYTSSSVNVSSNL
As to the kind of experiment: Binding affinity to CXCR1.

Series [2] deals with T2, C-X-C chemokine receptor type 2 (Homo sapiens, UniProt P25025).
T2 sequence (P25025 whole entry): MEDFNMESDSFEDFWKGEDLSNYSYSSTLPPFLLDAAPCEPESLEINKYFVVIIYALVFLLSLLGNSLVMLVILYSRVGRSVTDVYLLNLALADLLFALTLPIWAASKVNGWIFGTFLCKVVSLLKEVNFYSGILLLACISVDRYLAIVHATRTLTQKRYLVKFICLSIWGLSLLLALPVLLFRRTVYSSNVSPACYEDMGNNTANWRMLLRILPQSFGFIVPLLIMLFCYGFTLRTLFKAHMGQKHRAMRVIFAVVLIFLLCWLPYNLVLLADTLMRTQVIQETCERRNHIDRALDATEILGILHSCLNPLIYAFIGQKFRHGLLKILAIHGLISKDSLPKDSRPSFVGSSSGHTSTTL
As to the kind of experiment: Binding affinity to CXCR2.

The target of series [3] is T3, Interleukin-8 receptors, CXCR1/CXCR2 (Homo sapiens, UniProt P25025+P25024).
T3 sequence (P25025 whole entry): T2 sequence (P25025 whole entry)
T3 sequence (P25024 whole entry): T1 sequence (P25024 whole entry)
In words: Antagonist activity at CXCR1/CXCR2 in human PMN cells assessed as inhibition of GROalpha-mediated myeloperoxidase release. Format: functional, cell-based.

The target in series [4] is T3, Interleukin-8 receptors, CXCR1/CXCR2. In words: Antagonist activity at CXCR1/CXCR2 in human PMN cells assessed as inhibition of IL8-mediated myeloperoxidase release. Format: functional, cell-based.
The target of series [5] is Interleukin-8 receptors, CXCR1/CXCR2 (Homo sapiens) (UniProt P25025+P25024). In words: Antagonist activity at CXCR1/CXCR2 in human PMN cells assessed as inhibition of GROalpha-mediated myeloperoxidase release at 1 uM. Format: functional, cell-based. Details: scale not given: the % may be the effect or the level left.
Series [6] in a line: Drug level in po dosed rat blood. As to conditions: read-out: Activity. Format: ADME, organism-based.

SMILES strings stand for the structures.

As for `CN(C)C(=O)c1cccc(Nc2n[s+]([O-])nc2N[C@@H](c2ccccc2)C(C)(C)C)c1O` (stereo not given in full), the Ki was determined as 0.13 µM in series [1] and 0.004 µM in series [2]. Also, the half-inhibitory concentration (IC50) is 0.028 µM in series [3] and 0.142 µM in series [4].
With `CC(C)[C@@H](Nc1n[s+]([O-])nc1Nc1cccc(C(=O)N(C)C)c1O)c1cccc(F)c1` (stereo not given in full), the figures for the Ki in series [1] and in series [2] were 4.01 µM and 0.008 µM, respectively.
In the case of `CC[C@@H](Nc1n[s+]([O-])nc1Nc1cccc(C(=O)N(C)C)c1O)c1ccc(C)o1` (stereo not given in full), the inhibition constant Ki amounted to 0.234 µM in series [1] and 0.003 µM in series [2]. In addition, the half-maximal inhibitory concentration (IC50) in series [3] was 0.133 µM; in series [4] it was 0.539 µM.
As for `CC[C@@H](Nc1n[s+]([O-])nc1Nc1cccc(C(=O)N(C)C)c1O)c1cc(C(C)C)co1` (stereo not given in full), the inhibition constant (Ki) is 0.061 µM in series [1] and 0.009 µM in series [2]. Further, the half-inhibitory concentration (IC50) in series [3] amounted to 0.008 µM; in series [4], 0.015 µM.
In series [1], `CC[C@@H](NC1=NS(=O)(=O)N=C1Nc1cccc(C(=O)N(C)C)c1O)c1ccc(C)o1` displayed an inhibition constant (Ki) of 5.95 µM.
As for `CN(C)C(=O)c1cccc(Nc2n[s+]([O-])nc2N[C@@H](c2ccco2)C(C)(C)C)c1O` (stereo not given in full), the inhibitory constant (Ki) in series [1] turned out to be 0.021 µM; in series [2] it was 0.0023 µM. In addition, the values for the concentration for half-maximal inhibition (IC50) in series [3] and in series [4] were 0.008 µM and 0.02 µM, respectively.
On to `Cc1ccc([C@H](NC2=NS(=O)(=O)N=C2Nc2cccc(C(=O)N(C)C)c2O)C2(C)CC2)o1`, for which the Ki in series [1] came to 1.1 µM; in series [2] it was 0.184 µM. The Activity in series [5] is -11%.
`CC[C@@H](NC1=NS(=O)(=O)NC1=Nc1cccc(C(=O)N(C)C)c1O)c1ccc2c(c1)OCCN2C`: the inhibition constant Ki in series [1] is 2.8 µM; in series [2], 0.009 µM.
As for `CN(C)C(=O)c1cccc(N=C2NS(=O)(=O)N=C2N[C@@H](c2ccc3c(c2)OCCO3)C(C)(C)C)c1O`, in series [6], the AUC was 1.87 µM·h. The inhibitory constant (Ki) in series [1] worked out at 2 µM; in series [2] it was 0.024 µM.
With `CC(C)[C@@H](NC1=NS(=O)(=O)N=C1Nc1cccc(C(=O)N(C)C)c1O)c1cccc(F)c1`, the inhibition constant (Ki) was determined as 0.652 µM in series [1] and 0.011 µM in series [2].
On to `C[C@H](Nc1n[s+]([O-])nc1Nc1cccc(C(=O)N(C)C)c1O)C(C)(C)C` (stereo not given in full), for which the AUC in series [6] was determined as 5.28 µM·h. The inhibition constant Ki in series [1] was 0.484 µM; in series [2], 0.058 µM. For the same compound, the IC50 came to 0.038 µM in series [3] and 0.684 µM in series [4].
For the compound `CN(C)C(=O)c1cccc(NC2=NS(=O)(=O)N=C2N[C@@H](c2ccc3c(c2)OCCO3)C(C)(C)C)c1O`, the Activity in series [5] is -12%.
As for `CC[C@@H](Nc1n[s+]([O-])nc1Nc1cccc(C(=O)N(C)C)c1O)c1ccccc1` (stereo not given in full), the figures for the inhibition constant (Ki) in series [1] and in series [2] were 1.22 µM and 0.005 µM, respectively. In addition, the IC50 in series [3] was 0.331 µM.
For the compound `CC[C@@H](NC1=NS(=O)(=O)N=C1Nc1cccc(C(=O)N(C)C)c1O)c1ccccc1`, the AUC in series [6] came out at 2.3 µM·h. In series [1], this compound registered a Ki of 8.99 µM. In series [4], the half-maximal inhibitory concentration (IC50) was 8.99 µM. In addition, in series [5], the Activity was -39%.
In the case of `CN(C)C(=O)c1cccc(NC2=NS(=O)(=O)N=C2N[C@@H](c2ccc3c(c2)OCO3)C(C)(C)C)c1O`, the Ki is 0.046 µM in series [1] and 0.0047 µM in series [2].
For `CN(C)C(=O)c1cccc(NC2=NS(=O)(=O)N=C2N[C@@H](c2ccco2)C(C)(C)C)c1O`, the Ki in series [1] stood at 0.061 µM; in series [2], 0.011 µM. In addition, in series [5], the Activity is 3%.
For `CN(C)C(=O)c1cccc(Nc2n[s+]([O-])nc2NCc2ccc3c(c2)OCO3)c1O` (stereo not given), the inhibition constant (Ki) in series [1] worked out at 10 µM; in series [2], 0.015 µM.
For `CN(C)C(=O)c1cccc(NC2=NS(=O)(=O)N=C2N[C@@H](c2ccc(Cl)o2)C(C)(C)C)c1O` the same measures were 0.129 µM and 0.009 µM.
As to `CN(C)C(=O)c1cccc(Nc2n[s+]([O-])nc2N[C@@H](c2ccco2)C2(C)CC2)c1O` (stereo not given in full), the inhibition constant (Ki) in series [1] came to 0.375 µM; in series [2], 0.012 µM. Moreover, the IC50 was determined as 0.132 µM in series [3] and 0.4 µM in series [4].
For `Cc1ccc([C@H](Nc2n[s+]([O-])nc2Nc2cccc(C(=O)N(C)C)c2O)C(C)(C)C)o1` (stereo not given in full) the same measures were 0.038 µM, 0.005 µM, 0.027 µM and 0.08 µM.
Consider `CCC(C)(C)[C@@H](NC1=NS(=O)(=O)N=C1Nc1cccc(C(=O)N(C)C)c1O)c1ccco1`, for which the Ki in series [1] amounted to 0.188 µM; in series [2] it was 0.016 µM. The Activity in series [5] was -19%.
As to `Cc1cc([C@H](Nc2n[s+]([O-])nc2Nc2cccc(C(=O)N(C)C)c2O)C(C)C)oc1C` (stereo not given in full), the AUC in series [6] was 119 µM·h. The half-inhibitory concentration (IC50) in series [3] stood at 0.013 µM; in series [4], 0.054 µM.

By Ki is commonly meant a measure of affinity in units of concentration, obtained from inhibition or displacement. By IC50 is commonly meant the concentration at which inhibition is half-maximal.
